Entries after “also recorded” stand apart in the source; their conditions may differ.
What was measured:
[1] = tested on: human FUT3 and FUT6; experiment: Anti-Fut 3/6 immunoblot of Capan 1 cells infected with H. pylori; format: cell-based; details: Capan 1 cells pre-treated with H. pylori and 50 nM FNJ for 4 h
Method: Lane A, extract of Capan 1 cells. Lane B, extract of Capan 1 cells pre-treated with H. pylori for 4 h. Lanes C, C′, duplicate independent experiments of extract of Capan 1 cells pre-treated with H. pylori and 50 nM of the α-L-fucosidase inhibitor, FNJ, for 4 h.
L-Fucose is a likely source of utilizable carbon and energy because it is located at the termini of mammalian glycoconjugates. L-Fucose is an abundant component of many host gastric mucosa glycoconjugates (Madrid, et al., J. Histochem. Cytochem 1998, 46:1311-1320) that are constitutively synthesized by host cells. Thus, the “request” from H. pylori to manufacture fucosylated glycans may require the host to activate translation of one or more of its fucosyltransferase proteins.

[2] = tested on: H. pylori; experiment: Adherence of H. pylori to host cells on treatment of infected cells; format: cell-based, Helicobacter pylori; details: summary statement; host cells not specified
Description: CagA of H. pylori was the first reported bacterial virulence protein translocated by a type IV secretion system (Stein, et al., Proc. Natl. Acad. Sci. USA 2000, 97:1263-1268). Translocated CagA protein can be detected inside host cells soon after H. pylori attachment. The adhesion efficiency of H. pylori can be thus measured by monitoring the level of translocated CagA inside host cells. Four different epithelial cell lines were chosen for the study, namely mock-transfected Capan 1, Capan 1-FUCA2 K.D., Capan 1, and AGS cells. Isogenic vacA (CagA+), cagA (CagA−) mutants, and clinical isolates from patients with gastritis (GS), duodenal ulcer (DU), and gastric cancer (GC) were selected for co-culturing with the four epithelial cell lines. The epithelial cell lysates were analyzed by SDS-PAGE 6-8 h after infection and immunoblotted with a CagA-specific monoclonal antibody. CagA (˜140 kDa) was detected when mock-transfected Capan 1 cells were infected with each different H. pylori strain (FIG. 7B). Nonetheless, CagA was not detected upon Capan 1-FUCA2 K.D. infection with the different H. pylori strains, with the exception of GS (FIG. 7C). […] In contrast, CagA was detected in substantial amounts without FNJ treatment (FIGS. 8A and 8C, corresponding to the results of Capan 1 and AGS cells, respectively).

[3] = tested on: H. pylori-infected AGS cells; experiment: Transfer of 6-azido-L-fucose from AGS host cells to H. pylori; format: cell-based, human; details: 100 μM FNJ
Description: (§1) A considerable proportion of H. pylori in the stomach is located at the epithelial mucosa (Schreiber S, et al. Proc. Natl. Acad. Sci. USA 2004, 101:5024-5029) where there are various fucose-containing oligosaccharides including Lewis antigens. To determine if H. pylori acquires L-fucose from host cells, similar to the interaction between B. thetaiotaomicron and small intestine cells (Hooper, et al. Proc. Natl. Acad. Sci. USA 1999, 96:9833-9838), the click chemistry-based fluorogenic labeling method developed by Wong and coworkers (Sawa M, et al. Proc. Natl. Acad. Sci. USA 2006, 103:12371-12376) was applied to detect fucosylated glycoconjugates. […]
(§2) CagA of H. pylori was the first reported bacterial virulence protein translocated by a type IV secretion system (Stein, et al., Proc. Natl. Acad. Sci. USA 2000, 97:1263-1268). Translocated CagA protein can be detected inside host cells soon after H. pylori attachment. The adhesion efficiency of H. pylori can be thus measured by monitoring the level of translocated CagA inside host cells. […] The epithelial cell lysates were analyzed by SDS-PAGE 6-8 h after infection and immunoblotted with a CagA-specific monoclonal antibody. CagA (˜140 kDa) was detected when mock-transfected Capan 1 cells were infected with each different H. pylori strain (FIG. 7B). […]

[4] = tested on: H. pylori-infected Capan 1 cells; experiment: Immunoblot of translocated CagA (adhesion efficiency of H. pylori) in infected Capan 1 cells; format: cell-based, human; details: Capan 1, 100 μM FNJ
Method: (§3) FIG. 8A-8D collectively provide immunoblot analysis of epithelial cells infected with H. pylori using mouse monoclonal anti-CagA. Capan 1 and AGS cells were infected with different H. pylori strains, including CagA^+ and CagA^−, and various clinical isolates from patients with gastritis (GS), duodenal ulcer (DU) and gastric cancer (GC). PBS represents the negative control. The co-culture was maintained for 6-8 h at an MOI of ˜200:1. In the parallel experiments, Capan 1 (a) and AGS cells (c) were infected under the same conditions. The effect of α-L-fucosidase was evaluated by addition of 100 μM FNJ to the co-cultures of Capan 1 (b) and AGS cells (d) with various H. pylori strains.
(§4) FIG. 9 illustrates immunoblot analysis of H. pylori-infected epithelial cells with mouse monoclonal anti-CagA. Capan 1 and AGS cells were infected with different H. pylori strains that were clinical isolates from five different patients with duodenal ulcer (DU). PBS was used as a negative control in the absence of H. pylori. The co-culture was maintained for 6-8 h at an MOI of ˜200:1. […] The effect of α-L-fucosidase was evaluated by addition of 100 μM of the α-L-fucosidase inhibitor, FNJ, to co-cultures of Capan 1 (b) and AGS cells (d) with the indicated H. pylori strains. […]
as §2, with “7B). Nonetheless, CagA was not detected upon Capan 1-FUCA2 K.D. infection with the different H. pylori strains, with the exception of GS (FIG. 7C).” for “7B).”

[5] = tested on: Le^x antigen in H. pylori; experiment: Anti-Le^x immunoblot of H. pylori lysates after co-culture with Capan 1 cells; format: cell-based, Helicobacter pylori
Method: (§5) FIGS. 11A-11D collectively show immunoblot analysis of H. pylori-infected Capan 1 and AGS cells with mouse monoclonal anti-Le^x antigen. Capan 1 and AGS cells were infected with different H. pylori strains (from DU-152 to DU-157) that were clinical isolates from six different patients with duodenal ulcer (DU). PBS represents a negative control in the absence of H. pylori. The co-culture was maintained for 12 h at an MOI of ˜400:1. In the parallel experiments, Capan 1 (11a) and AGS cells (11c) were infected under the same conditions. The effect of α-L-fucosidase was evaluated by addition of 100 μM FNJ to the co-cultures of Capan 1 (11b) and AGS cells (11d) with various H. pylori strains. The bacterial cells were collected and lysed for Le^x analysis.
(§6) The secretion of FUCA2 directly results in the extracellular production of L-fucose residues that are then incorporated into H. pylori. It is important to determine if the L-fucose-related biosynthesis is affected at the same time. […] The H. pylori cell lysates were analyzed by SDS-PAGE 12 h after infection and immunoblotted with a Le^x-specific monoclonal antibody. […] In contrast, Le^x-containing glycoproteins were detected in substantial amounts without FNJ treatment (FIGS. 11A and 11C, corresponding to H. pylori-infected Capan 1 and AGS cells, respectively).

[6] = tested on: H. pylori-infected AGS cells; experiment: Immunoblot of translocated CagA (adhesion efficiency of H. pylori) in infected AGS cells; format: cell-based, human; details: 100 μM FNJ
Method: as §3, §4
as §2, with “7B). Nonetheless, CagA was not detected upon Capan 1-FUCA2 K.D. infection with the different H. pylori strains, with the exception of GS (FIG. 7C).” for “7B).”

[7] = tested on: Le^x antigen in H. pylori; experiment: Anti-Le^x immunoblot of H. pylori lysates after co-culture with AGS cells; format: cell-based, Helicobacter pylori; details: 100 μM FNJ, DU-152 to DU-157, 12 h, MOI ~400:1
Method: as §5, §6

[8] = tested on: H. pylori-infected Capan 1 cells; experiment: Transfer of 6-azido-L-fucose from Capan 1 host cells to H. pylori; format: cell-based, human; details: Capan 1, 100 μM FNJ
Description: as §1, §2

[9] = DU strains DU-152, DU-153, DU-154, DU-155, DU-157
[10] = DU- or GC-specific H. pylori strains, 6-8 h, MOI ~200:1
[11] = GS-specific H. pylori strain, 6-8 h

## CC1NC(CN)C(O)C(O)C1O (stereo not shown) [FNJ, 1-aminomethyl-1-deoxy-fuconojirimycin]
[1]
  expression of human FUT3 and FUT6: decreased substantially
[2]
  adherence of H. pylori to host cells: effectively prevented adherence
[3]
  transfer of 6-azido-L-fucose from host cells to H. pylori: considerably reduce
[4]; [9]
  CagA present in host cells: no longer present
[4]; [10]
  CagA detected in host cells: no or little CagA was detected
[4]; [11]
  level of CagA: not affected
[5]; Capan 1, 100 μM FNJ, DU-152 to DU-157, 12 h, MOI ~400:1
  Le^x-expression level in H. pylori: considerably reduce; also recorded: significantly less
[5]; summary statement, host cells not specified
  level of Le^x-containing glycoproteins in H. pylori: significantly reduced
[6]; [9]
  CagA present in host cells: no longer present
[6]; [10]
  CagA detected in host cells: consistent with those obtained in AGS cells
[6]; [11]
  level of CagA: not affected
[7]
  Le^x-expression level in H. pylori: considerably reduce; also recorded: significantly less
[8]
  transfer of 6-azido-L-fucose from host cells to H. pylori: considerably reduce
